Measurements from ChEMBL document CHEMBL5674860, “Optimized Dual-Glo Assay to identify co-culture-induced drug vulnerabilities in 3D CRC models” (2024).

Tests used:
Format in all cases: functional, Homo sapiens
Design in all cases: dose or concentration left out as unconfirmed
[1] = test system: Colon cancer organoid; test: Optimized Dual-Glo assay to identify co-culture induced drug vulnerabilities using donated chemical probes and chemogenomics kinase set in O06 CRC organoid and F06 CAF mono and co-culture. […] Cell viability is reported both mono and co-culture models.
[2] = test system: Colon cancer organoid; test: Optimized Dual-Glo assay to identify co-culture induced drug vulnerabilities using donated chemical probes and chemogenomics kinase set in O14 CRC organoid and F14 CAF mono and co-culture. […] Cell viability is reported both mono and co-culture models.
[3] = test system: Colon cancer organoid; test: Optimized Dual-Glo assay to identify co-culture induced drug vulnerabilities using donated chemical probes and chemogenomics kinase set in O20 CRC organoid and F20 CAF mono and co-culture. […] Cell viability is reported both mono and co-culture models.
[4] = Culture type Co-Culture, Transduced with Lucferase2-P2A-EGFP lentivirus
[5] = Culture type Co-Culture, Transduced with Renilla-dsRed lentivirus
[6] = Culture type Mono-Culture, Transduced with Lucferase2-P2A-EGFP lentivirus
[7] = Culture type Mono-Culture, Transduced with Renilla-dsRed lentivirus

SMILES	Cell Viability [1, 4] [%]	Cell Viability [1, 5] [%]	Cell Viability [1, 6] [%]	Cell Viability [1, 7] [%]	Cell Viability [2, 4] [%]	Cell Viability [2, 5] [%]	Cell Viability [2, 6] [%]	Cell Viability [2, 7] [%]	Cell Viability [3, 4] [%]	Cell Viability [3, 5] [%]	Cell Viability [3, 6] [%]	Cell Viability [3, 7] [%]
Cn1cncc1[C@@](O)(COc1ccc(C#N)cc1-c1ccc(OC(F)(F)F)cc1)c1ccc(C#N)cc1 [A-108]	113.578	151.877	88.7228	108.002	57.9117	92.8032	90.1674	97.2035	89.1467	110.638	65.4211	112.38
CCC(=N\O)/C(C)=C/c1ccc(F)c(C)c1 [A-226]	127.798	151.161	120.98	100.434	99.1206	103.384	109.979	105.569	93.31	115.263	126.956	103.634
CCCCN(CCCC)C(=O)CN1C[C@@H](c2cc(OC)c3c(c2)OCO3)[C@H](C(=O)O)[C@H]1CC(C)(C)CCC [A-545]	124.297	133.906	113.751	92.0951	105.072	96.9928	119.694	109.859	123.099	97.2502	106.602	112.439
CSc1cccnc1N1CCN(Cc2nc3ccccc3[nH]2)CC1 [A-769]	120.489	139.823	101.067	109.755	93.5096	109.84	108.274	96.7022	125.432	98.3481	117.315	102.928
CN(C)CC#Cc1ccc(OCCCc2sc(N3CCc4cccc(C(=O)Nc5nc6ccccc6s5)c4C3)nc2C(=O)O)c(F)c1 [A-1155463]	0.3385	128.541	0.4136	37.2528	48.5807	127.556	26.2999	75.159	1.175	177.943	3.867	58.9374
CO[C@H]1CC[C@H](CNc2ccc(S(=O)(=O)NC(=O)c3ccc(N4CCN(CC5=C(c6ccc(Cl)cc6)CC(C)(C)CC5)CC4)cc3Oc3cnc4[nH]ccc4c3)cc2[N+](=O)[O-])CC1 [A-1211212]	8.693	108.861	18.6642	86.311	35.4826	44.6988	55.1244	87.836	16.3832	159.244	32.5112	71.0169
COc1ccc2c(c1)O[C@H](c1ccc(OC)c(OC)c1)C[C@@H]2NC(=O)C1(c2ccc3c(c2)OC(F)(F)O3)CC1 [A-1596584]	86.7173	88.6658	66.4869	108.119	97.6687	114.369	74.3649	92.2647	72.8626	142.746	90.2448	98.4012
COc1ccc2c(c1)O[C@@H](c1ccc(OC)c(OC)c1)C[C@H]2NC(=O)C1(c2ccc3c(c2)OC(F)(F)O3)CC1 [A-1596586]	95.9961	117.187	95.5945	101.185	96.097	118.297	94.5524	101.637	84.3805	101.93	87.5429	80.1817
CCNC(=O)c1cc2c(-c3cc(C(C)(C)O)ccc3Oc3c(C)cc(F)cc3C)cn(C)c(=O)c2[nH]1 [ABBV-744]	91.6049	287.135	45.0108	272.327	55.2801	319.971	42.072	212.265	58.1744	215.224	60.9117	122.12
CC#CC(=O)N1CCC[C@H]1c1nc(-c2ccc(C(=O)Nc3ccccn3)cc2)c2c(N)nccn12 [ACALABRUTINIB]	96.562	83.4698	98.0139	99.6421	70.2708	100.717	59.6403	100.701	96.1769	99.9657	56.8336	71.1135
CN(C)C/C=C/C(=O)Nc1cc2c(Nc3ccc(F)c(Cl)c3)ncnc2cc1O[C@H]1CCOC1.O=C(O)/C=C\C(=O)O.O=C(O)/C=C\C(=O)O [AFATINIB DIMALEATE]	26.678	56.3894	6.9021	44.0198	29.2387	54.1607	5.719	44.7132	37.5755	73.123	10.3381	31.0858
COc1cc(Nc2ncc3c(n2)-c2ccc(Cl)cc2C(c2c(F)cccc2OC)=NC3)ccc1C(=O)O [ALISERTIB]	20.0499	286.415	8.923	120.563	16.1373	168.728	26.2121	103.392	6.089	322.747	10.9419	116.531
Cc1nc(NC(=O)N2CCC[C@H]2C(N)=O)sc1-c1ccnc(C(C)(C)C(F)(F)F)c1 [ALPELISIB]	74.6278	68.5217	72.4718	69.5837	44.356	105.185	47.7974	68.4414	70.7946	99.8659	21.7931	78.1697
